Consider 30 compounds from PubChem BioAssay AID651772 (Broad Institute, 2012).

“And” between values parts separate entries of the source, which are not always exact repeats. Identical values can stand only once. Records with an inconclusive call do not appear. The source made the active and inactive calls.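 How the source made its calls: active means compounds whose fitted curve reaches 40% higher CDK2 Ct shift, meaning less CDK2 mRNA, within twice the top dose; inconclusive means flat curve with 30 to 70% opposite effect, or poor fit; inactive means the rest.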

Test system in one assay: not listed separately
The assay can be described thus: suppression of MITF target gene CDK2 mRNA, dose response, orthogonal assay for MITF inhibitor project, cell-based, SK-MEL-5, RT-qPCR, dry powder samples (AID 651772). As to conditions: SK-MEL-5 CDK2 mRNA, RT-qPCR delta-delta-Ct, overnight. (In qPCR the cycle at which signal appears reflects the starting amount.)
Take `NC1=C(NS(=O)(=O)c2ccc(Br)s2)C(=O)c2ccccc2C1=O`: the result was inactive.

The next assay concerns SK-MEL-5 CDK2 mRNA, RT-qPCR delta-delta-Ct, overnight. The description is as above.
Conditions: not given
As for `O=C(NC1=C(Cl)C(=O)c2ccccc2C1=O)c1ccccc1`, the AC40 was 0.203 µM.
Consider `COC1=C(NS(=O)(=O)c2ccccc2)C(=O)c2ccccc2C1=O`, for which the AC40 is 3.5 µM.
`C=CCNC1=C(Cl)C(=O)c2ccccc2C1=O`: the AC40 is 1.46 µM.
With `NC1=CC(=O)c2ccccc2C1=O`, the AC40 is 0.3 µM.
Same read-out and setting: under `O=C1C=C(Nc2ccc([N+](=O)[O-])c(C(F)(F)F)c2)C(=O)c2ccccc21` stands 0.0787 µM; under `O=C1C(Nc2ccc(F)cc2)=C(N2CCCCC2)C(=O)c2ccccc21`, 8.22 µM; under `O=C1C(Nc2ccccc2)=C(c2ccccc2)C(=O)c2ccccc21`, 7.06 µM.
The same measure, in the same setting: under `NC1=C(NS(=O)(=O)c2cccs2)C(=O)c2ccccc2C1=O` stands 1.98 µM.
Still for that read-out and setting: under `COC1=C(NS(=O)(=O)c2cccs2)C(=O)c2ccccc2C1=O` stands 9.34 µM.
As to `O=C1C=C(NS(=O)(=O)c2ccccc2)C(=O)c2ccccc21`, the AC40 is 0.138 µM.
`NS(=O)(=O)c1ccc(NC2=CC(=O)c3ccccc3C2=O)cc1`: the AC40 was 0.141 µM.
As to `NC1=C(NC(=O)c2ccccc2)C(=O)c2ccccc2C1=O`, the AC40 was 0.882 µM.
In the case of `NC1=C(NS(=O)(=O)c2ccccc2)C(=O)c2ccccc2C1=O`, the AC40 is 4.39 µM.
For `Cc1nc2ccccc2n1/N=C/c1ccc([N+](=O)[O-])s1`, the AC40 was 2.92 µM.
On the same count and under the same terms, for `CC(C)N1CCN(C2=C(Nc3ccc(F)cc3F)C(=O)c3ccccc3C2=O)CC1` the value was 1.77 µM.
Still for that read-out and setting: for `CC(C)N1CCN(C2=C(Nc3ccc(F)cc3)C(=O)c3ccccc3C2=O)CC1` the value was 6.51 µM; for `CCN1CCN(C2=C(Nc3ccc(F)cc3F)C(=O)c3ccccc3C2=O)CC1`, 1.41 µM.
Regarding `CN1CCN(C2=C(Nc3ccc(F)cc3F)C(=O)c3ccccc3C2=O)CC1`, the AC40 was 2.45 µM.
Still for that read-out and setting: for `NC1=C(NS(=O)(=O)c2ccc(Br)cc2)C(=O)c2ccccc2C1=O` the value was 9.61 µM.
The same measure, in the same setting: for `COC1=C(NS(=O)(=O)c2ccc(Br)cc2)C(=O)c2ccccc2C1=O` the value was 4.29 µM; for `CCN1CCN(C2=C(NC(=O)c3ccccc3)C(=O)c3ccccc3C2=O)CC1`, 2.41 µM; for `CCN1CCN(C2=C(NS(=O)(=O)c3ccc(Br)cc3)C(=O)c3ccccc3C2=O)CC1`, 14.1 µM.
On the same count and under the same terms, for `O=C1C=C(NS(=O)(=O)c2ccc(Br)cc2)C(=O)c2ccccc21` the value was 0.358 µM; for `CN1CCN(C2=C(NS(=O)(=O)c3ccc(Br)s3)C(=O)c3ccccc3C2=O)CC1`, 7.94 µM.
As to `O=C1C=C(NS(=O)(=O)c2cccs2)C(=O)c2ccccc21`, the AC40 was 0.339 µM.
Same read-out and setting: under `COC1=C(Nc2ccccc2)C(=O)c2ccccc2C1=O` stands 0.204 µM.
For `O=C1C(Nc2ccc(Cl)cc2)=C(N2CCCC2)C(=O)c2ccccc21`, the AC40 was 9.91 µM.
On the same count and under the same terms, for `O=C1C=C(Nc2ccccc2)C(=O)c2ccccc21` the value was 0.571 µM and 0.394 µM; for `O=C1C(NS(=O)(=O)c2cccs2)=C(c2ccccc2)C(=O)c2ccccc21`, 3.79 µM.
